Like-named read-outs stand apart in the source and are kept apart here.
Tests used:
human TLR8 = target: T1, human TLR8 (Homo sapiens, UniProt Q9NR97); assay: HEK293 NFKB reporter assay, human TLR8; format: cell-based; conditions: HEK293 reporter cells expressing human TLR8, read-out: HEK293 hTLR8 EC50
T1 construct: host or cells: HEK293 reporter cells
T1 sequence (Q9NR97 27-1041): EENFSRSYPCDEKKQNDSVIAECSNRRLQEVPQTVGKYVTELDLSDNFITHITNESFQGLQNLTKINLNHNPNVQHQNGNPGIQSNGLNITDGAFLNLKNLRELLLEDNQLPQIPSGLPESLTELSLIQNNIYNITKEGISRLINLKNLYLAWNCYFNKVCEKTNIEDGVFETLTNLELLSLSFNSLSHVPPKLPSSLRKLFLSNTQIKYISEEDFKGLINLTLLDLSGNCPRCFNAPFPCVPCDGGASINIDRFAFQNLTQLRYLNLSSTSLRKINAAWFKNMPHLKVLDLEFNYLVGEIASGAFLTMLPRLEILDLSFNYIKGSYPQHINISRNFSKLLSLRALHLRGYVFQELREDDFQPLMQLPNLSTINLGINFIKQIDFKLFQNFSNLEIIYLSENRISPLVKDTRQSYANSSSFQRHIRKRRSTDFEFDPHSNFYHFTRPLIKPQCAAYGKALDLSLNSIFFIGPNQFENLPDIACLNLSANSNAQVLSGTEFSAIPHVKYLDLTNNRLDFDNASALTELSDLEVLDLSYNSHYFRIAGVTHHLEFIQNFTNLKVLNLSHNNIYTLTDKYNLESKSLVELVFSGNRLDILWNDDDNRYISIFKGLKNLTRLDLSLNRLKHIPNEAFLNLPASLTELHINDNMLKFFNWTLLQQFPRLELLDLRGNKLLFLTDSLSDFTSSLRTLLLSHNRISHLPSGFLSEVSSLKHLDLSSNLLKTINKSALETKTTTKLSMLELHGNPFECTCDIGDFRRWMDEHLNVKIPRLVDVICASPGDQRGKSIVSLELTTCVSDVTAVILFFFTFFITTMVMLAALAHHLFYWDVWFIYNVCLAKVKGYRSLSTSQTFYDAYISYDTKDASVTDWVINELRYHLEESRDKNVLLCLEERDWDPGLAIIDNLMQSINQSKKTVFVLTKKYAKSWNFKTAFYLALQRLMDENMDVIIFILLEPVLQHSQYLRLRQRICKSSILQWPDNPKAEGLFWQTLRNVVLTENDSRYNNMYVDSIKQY
Method: (§1) Each compound was synthesized and purified by the methods in the Examples provided herein, characterized by mass spectrometry, and shown to have the mass indicated. Activity against HEK293 NFKB reporter cells expressing human TLR7 or human TLR8 was measured according to Example 68.
(§2) HEK293 reporter cells expressing human TLR7 or human TLR8 were purchased from Invivogen and vendor protocols were followed for cellular propagation and experimentation. Briefly, cells were grown to 80-85% confluence at 5% CO2 in DMEM supplemented with 10% FBS, Zeocin, and Blasticidin. Cells were then seeded in 96-well flat plates at 4×10^4cells/well with substrate containing HEK detection medium and immunostimulatory molecules. Activity was measured using a plate reader at 620-655 nm wavelength.

human TLR7 = target: T2, human TLR7 (Homo sapiens, UniProt Q9NYK1); assay: HEK293 NFKB reporter assay, human TLR7; format: cell-based; conditions: HEK293 reporter cells expressing human TLR7, read-out: HEK293 hTLR7 EC50
T2 construct: host or cells: HEK293 reporter cells
T2 sequence (Q9NYK1 27-1049): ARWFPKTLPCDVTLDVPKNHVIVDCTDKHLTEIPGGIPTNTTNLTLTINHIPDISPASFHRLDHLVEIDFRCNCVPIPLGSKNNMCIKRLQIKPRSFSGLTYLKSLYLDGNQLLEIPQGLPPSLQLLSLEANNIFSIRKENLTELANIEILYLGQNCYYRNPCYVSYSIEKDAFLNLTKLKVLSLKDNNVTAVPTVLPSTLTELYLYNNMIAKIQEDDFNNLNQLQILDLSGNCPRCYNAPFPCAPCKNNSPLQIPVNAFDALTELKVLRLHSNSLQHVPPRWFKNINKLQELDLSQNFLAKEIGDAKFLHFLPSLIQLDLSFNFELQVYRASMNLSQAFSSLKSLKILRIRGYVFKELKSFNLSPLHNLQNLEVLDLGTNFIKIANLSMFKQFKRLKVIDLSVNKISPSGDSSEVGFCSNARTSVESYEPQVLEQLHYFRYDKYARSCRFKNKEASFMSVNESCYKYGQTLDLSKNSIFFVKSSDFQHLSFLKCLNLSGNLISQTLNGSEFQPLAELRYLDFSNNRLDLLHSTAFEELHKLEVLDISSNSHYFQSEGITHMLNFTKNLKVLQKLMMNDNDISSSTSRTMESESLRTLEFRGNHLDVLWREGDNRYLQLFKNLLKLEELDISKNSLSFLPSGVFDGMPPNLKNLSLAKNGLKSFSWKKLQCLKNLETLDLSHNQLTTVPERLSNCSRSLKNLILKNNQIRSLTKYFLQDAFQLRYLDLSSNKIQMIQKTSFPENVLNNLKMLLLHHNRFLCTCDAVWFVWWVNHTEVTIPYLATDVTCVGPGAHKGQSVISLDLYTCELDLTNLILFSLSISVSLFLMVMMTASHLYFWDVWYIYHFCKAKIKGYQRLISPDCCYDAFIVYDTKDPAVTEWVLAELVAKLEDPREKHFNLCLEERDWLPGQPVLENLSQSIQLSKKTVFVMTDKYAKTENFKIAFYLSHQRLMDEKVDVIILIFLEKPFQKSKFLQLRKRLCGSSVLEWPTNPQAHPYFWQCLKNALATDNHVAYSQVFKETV
Method: as §1, §2

Row | SMILES | EC50 (human TLR8; Table 1b) [nM] | EC50 (human TLR7; Table 1b) [nM] | EC50 (human TLR8; Table 1c) [nM] | EC50 (human TLR7; Table 1c) [nM]
1 | CCCN(CCC(F)(F)F)C(=O)C1=Cc2ccc(-c3cccc(S(=O)(=O)N4CC(CO)C4)c3)cc2N=C(N)C1 [Bz-31, 2-amino-8-[3-[3-(hydroxymethyl)azetidin-1-yl]sulfonylphenyl]-N-propyl-N-(3,3,3-trifluoropropyl)-3H-1-benzazepine-4-carboxamide] | 341 | > 9000 |  | 
2 | CCCN(Cc1ccc(CN2CCNCC2)cc1)C(=O)C1=Cc2ccc(-c3cccc(S(=O)(=O)N4CC(CO)C4)c3)cc2N=C(N)C1 [Bz-32, 2-amino-8-[3-[3-(hydroxymethyl)azetidin-1-yl]sulfonylphenyl]-N-[[4-(piperazin-1-ylmethyl)phenyl]methyl]-N-propyl-3H-1-benzazepine-4-carboxamide] | > 9000 | > 9000 |  | 
3 | CCCN(CCCNC(=O)c1ccc(OCC)cc1)C(=O)C1=Cc2ccc(-c3cccc(S(=O)(=O)N4CC(CO)C4)c3)cc2N=C(N)C1 [Bz-33, 2-amino-N-(3-(4-ethoxybenzamido)propyl)-8-(3-((3-(hydroxymethyl)azetidin-1-yl)sulfonyl)phenyl)-N-propyl-3H-benzo[b]azepine-4-carboxamide] | 1920 | 1430 |  | 
4 | CCCN(CCCNC(=O)c1ccc(OCC)cc1)C(=O)C1=Cc2ccc(C(=O)Nc3ccccc3)cc2N=C(N)C1 [Bz-34, 2-amino-N^4-(3-(4-ethoxybenzamido)propyl)-N^8-phenyl-N^4-propyl-3H-benzo[b]azepine-4,8-dicarboxamide] | 1040 | > 9000 |  | 
5 | CCCN(CCC)C(=O)C1=Cc2ccc(-c3cc(C(F)(F)F)cc(S(=O)(=O)N4CC(CN(C)C)C4)c3)cc2N=C(N)C1 [Bz-39] |  |  | 728 | 42
6 | CCCN(OCC)C(=O)C1=Cc2ccc(-c3cccc(S(=O)(=O)N4CC(CO)C4)c3)cc2N=C(N)C1 [Bz-42] |  |  | 49 | ≥ 9000
7 | CCCN(Cc1ccc(CN2CCNCC2)cc1)C(=O)C1=Cc2ccc(-c3cccc(S(=O)(=O)N4CC(CO)C4)c3)cc2N=C(N)C1 [Bz-49] |  |  | ≥ 9000 | ≥ 9000
8 | CCCN(CCCNC(=O)c1ccc(OCC)cc1)C(=O)C1=Cc2ccc(-c3cccc(S(=O)(=O)N4CC(CO)C4)c3)cc2N=C(N)C1 [Bz-51] |  |  | 1920 | 1430
9 | CCCN(CCCNC(=O)c1ccc(OCC)cc1)C(=O)C1=Cc2ccc(C(=O)Nc3ccccc3)cc2N=C(N)C1 [Bz-55] |  |  | 1040 | ≥ 9000
10 | CCON(CCC(F)(F)F)C(=O)C1=Cc2ccc(-c3cccc(S(=O)(=O)N4CC(CO)C4)c3)cc2N=C(N)C1 [Bz-66] |  |  | 26 | 4610
11 | CCCN(OCC(F)(F)F)C(=O)C1=Cc2ccc(-c3cccc(S(=O)(=O)N4CC(CO)C4)c3)cc2N=C(N)C1 [Bz-73] |  |  | 120 | 4480
12 | CCCN(CCc1ccc(OC)cc1)C(=O)C1=Cc2ccc(-c3cccc(S(=O)(=O)N4CC(CN(C)C)C4)c3)cc2N=C(N)C1 [Bz-76] |  |  | 786 | 969

Continued by falling EC50 (human TLR8; Table 1c), values first:

Row | EC50 (human TLR8; Table 1b) [nM] | EC50 (human TLR7; Table 1b) [nM] | EC50 (human TLR8; Table 1c) [nM] | EC50 (human TLR7; Table 1c) [nM] | SMILES
13 |  |  | 6670 | 3210 | CCCN(CCC)C(=O)C1=Cc2ccc(CCCCCNC(=O)OC(C)(C)C)cc2N=C(N)C1 [Bz-69]
14 |  |  | 3070 | 4600 | CCCN(CCC)C(=O)C1=Cc2ccc(C#CCCCN)cc2N=C(N)C1 [Bz-68]
15 |  |  | 2050 | 3930 | CCCN(CCC)C(=O)C1=Cc2ccc(C#CCCCNC(=O)OC(C)(C)C)cc2N=C(N)C1 [Bz-67]
16 |  |  | 341 | ≥ 9000 | CCCN(CCC(F)(F)F)C(=O)C1=Cc2ccc(-c3cccc(S(=O)(=O)N4CC(CO)C4)c3)cc2N=C(N)C1 [Bz-47]
17 |  |  | 8 | 1270 | CCCN(OCC)C(=O)C1=Cc2ccc(-c3cccc(S(=O)(=O)N4CC(CN(C)C)C4)c3)cc2N=C(N)C1 [Bz-63]
